PMC3677530 (Analytical biochemistry, 2013)
Several values for one entry are separate records, joined by “and”; a condition that tells them apart may be missing. Equal entries are not always repeated. Where two headings read alike, the source gives them in different places.

Columns and labels:
[1] = target: human cannabinoid CB1 receptor (Homo sapiens, UniProt P21554); experiment: cell-based; format: cell-based; settings: for CB2/CB1: ratio of the IC50 values CB2/CB1, plate-based assay
[2] = target: human cannabinoid CB2 receptor (Homo sapiens, UniProt P34972); experiment: cell-based; settings: for inhibition of internalization (CB2): 2 nM [3H]-CP55,940, CHO-CB2
human cannabinoid CB2 receptor, sequence (P34972 whole entry): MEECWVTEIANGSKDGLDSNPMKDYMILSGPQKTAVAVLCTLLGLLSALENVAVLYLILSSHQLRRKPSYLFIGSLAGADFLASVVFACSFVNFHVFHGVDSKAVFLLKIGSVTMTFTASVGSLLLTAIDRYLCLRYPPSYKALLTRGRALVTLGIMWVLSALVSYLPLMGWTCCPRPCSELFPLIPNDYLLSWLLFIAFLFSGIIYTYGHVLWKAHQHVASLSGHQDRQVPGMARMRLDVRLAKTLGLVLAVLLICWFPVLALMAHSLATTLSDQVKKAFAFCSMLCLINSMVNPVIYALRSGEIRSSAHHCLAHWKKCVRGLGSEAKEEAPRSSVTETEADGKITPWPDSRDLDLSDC

CB2 receptor = settings: ref Tam et al [25]; cited from earlier work

human cannabinoid CB1 receptor, sequence (P21554 whole entry): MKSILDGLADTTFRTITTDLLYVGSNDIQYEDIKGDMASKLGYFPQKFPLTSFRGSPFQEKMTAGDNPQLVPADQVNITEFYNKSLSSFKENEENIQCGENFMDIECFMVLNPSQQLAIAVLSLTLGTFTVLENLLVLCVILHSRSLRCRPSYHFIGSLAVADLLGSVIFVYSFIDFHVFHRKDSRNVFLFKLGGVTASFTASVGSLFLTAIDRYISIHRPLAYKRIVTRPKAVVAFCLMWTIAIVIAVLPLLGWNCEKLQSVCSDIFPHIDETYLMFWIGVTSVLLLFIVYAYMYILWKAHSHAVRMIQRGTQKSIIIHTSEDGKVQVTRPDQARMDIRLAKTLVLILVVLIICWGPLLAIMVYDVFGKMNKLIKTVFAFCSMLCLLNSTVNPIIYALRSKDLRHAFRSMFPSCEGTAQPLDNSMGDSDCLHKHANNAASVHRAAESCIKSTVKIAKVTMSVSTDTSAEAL

SMILES | inhibition of internalization (CB1) [1] [%] | CB2/CB1 [1] | inhibition of internalization (CB2) [2] [%] | IC50 ([1]; read-out: CB1 (IC50 ±SD)) [nM] | other results
CCCCCn1cc(C(=O)C23CC4CC(CC(C4)C2)C3)c2ccccc21 [AB001, 3-[(adamantan-1-yl)carbonyl]-1-pentylindole] | 32.6 | 58 | 30.3 | – | IC50 [1]: 29.5 ± 2.23 nM
Cc1c(C(=O)NN2CCCCC2)nn(-c2ccc(Cl)cc2Cl)c1-c1ccc(I)cc1 [AM251] | – | – | 60.5 | – | –
Cc1c(C(=O)NN2CCOCC2)nn(-c2ccc(Cl)cc2Cl)c1-c1ccc(I)cc1 [AM281] | – | – | 44.2 | 9.91 ± 0.99 | –
COc1ccc(C(=O)c2c(C)n(CCN3CCOCC3)c3cc(I)ccc23)cc1 [AM630] | – | – | 51.4 | – | –
Cc1c(C(=O)NN2CCS(=O)(=O)CC2)nn(-c2ccc(Cl)cc2Cl)c1-c1ccc(C#CCCC#N)cc1 [AM6545] | 43.7 | 309 | 50.7 | 4.2 ± 0.24 | –
C[C@@]12CC[C@@H]3[C@@](CC[C@H]4[C@@]3(C)CCC[C@@]4(C)C(=O)O)(CC1=O)C2 [Isosteviol] | – | 0.02 | 56.8 | – | IC50 [1]: 37.5 ± 6.9 nM; inhibition of internalization (CB1) ([1]; 10 nM [3H]-Win 55,212-2, CHO-CB1): 71.1%; IC50 [2]: 0.9 nM and 0.89 nM; selectivity for CB2 (over CB1) ([2]; plate-based assay): ~ 40 times
CC(C)[C@H](N=C(NS(=O)(=O)c1ccc(Cl)cc1)N1C[C@H](c2ccccc2)C(c2ccc(Cl)cc2)=N1)C(N)=O [JD5037-030] | 64.4 | 810 | 52.1 | 0.2 ± 0.05 | binding affinity for CB2 (CB2 receptor): 245 nM
Cc1c(C(=O)NN2CCCCC2)nn(-c2ccc(Cl)cc2Cl)c1-c1ccc(Cl)cc1 [Rimonabant] | – | – | 37.7 | – | –
CCCCCn1cc(C(=O)C2C(C)(C)C2(C)C)c2ccccc21 [UR144] | 29.6 | 3 | 38.1 | 27.2 ± 6.6 | selectivity for CB1 (over CB2) ([1]; plate-based assay): did not observe any selectivity
